Data on 14 molecules can be found in PubChem BioAssay (NCI).

Holding throughout (assay): DTP human tumour cell line panel, 48 h
The test system of assay [1] is HCT-116 colon.
For assay [2], the system named is HCT-15 colon.
Assay [3] concerns KM12 colon.
The subject of assay [4] is LOX IMVI melanoma.
Assay [5] deals with MDA-MB-231 breast.
Assay [6] relates to NCI/ADR-RES ovarian.
Assay [7] has as its system OVCAR-8 ovarian.
For assay [8], the system named is SK-OV-3 ovarian.
For assay [9], the system named is U251 CNS.
The test system of assay [10] is UO-31 renal.

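Method: 48-hour compound exposure of cells in 96-well plates, five concentrations, linear interpolation of endpoints. TGI: total growth inhibition.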

In the case of `Cc1cccc(-c2cc(=O)c3cccnc3[nH]2)c1`, the total growth inhibition concentration (TGI) (commonly the concentration giving total growth inhibition) in assay [1] is more than 100 µM; in assay [2] it was more than 100 µM; in assay [3], 82 µM; in assay [4] it was more than 100 µM; in assay [5], more than 100 µM; in [6], more than 100 µM. Besides, the TGI was 53.6 µM in assay [7], more than 100 µM in [8], more than 100 µM in assay [9] and more than 100 µM in assay [10].

As to `c1ccc(CCCN2C3CCC2CN(CCOC(c2ccccc2)c2ccccc2)C3)cc1`, the TGI in assay [1] is 19.8 µM; in assay [2], 18.1 µM; in assay [3], 24.2 µM; in [4], 24.5 µM; in [5], 21 µM; in assay [6], 21.3 µM. The TGI is 23.5 µM in assay [7], 29.3 µM in [8], 20.6 µM in assay [9] and 24.8 µM in assay [10].

Take `CCOC(=O)CCCN`: the TGI in [1], in [2], in [3], in [4], in assay [5] and in assay [6] was more than 100 µM throughout. The TGI in assay [7], in assay [8], in assay [9] and in assay [10] was more than 100 µM throughout.

For the molecule `C[C@]12CCC(=O)C=C1CC[C@@H]1[C@@H]2CC[C@]2(C)C(=O)/C(=C/c3ccc([N+](=O)[O-])cc3)C[C@@H]12`, the concentration for total growth inhibition (TGI) in assay [1], in assay [2], in assay [3], in assay [4], in [5] and in [6] was more than 100 µM in each case. The TGI in assay [7], in assay [8] and in [10] was more than 100 µM each time.

For the molecule `CC1=NN(c2ccccc2)C(=O)/C1=C1\SC(c2ccccc2)(c2ccccc2)c2ccccc21`, the TGI in [1], in [2], in [3], in [4], in assay [5] and in [6] was more than 100 µM each time. Also, the TGI in assay [7], in assay [8], in [9] and in [10] was more than 100 µM throughout.

In the case of `CCOC(=O)N1CCC2(CC1)C[C@](Sc1ccccc1)(C(C)=O)[C@H](C)O2`, the TGI in assay [2], in assay [3], in assay [4], in assay [5], in assay [6] and in assay [7] was more than 100 µM in each case. In addition, the TGI in assay [8], in assay [9] and in [10] was more than 100 µM each time.

Take `COc1cc(/C=C2\CC3C4CC=C5C[C@@H](O)CC[C@]5(C)C4CC[C@]3(C)\C2=N\O)cc(OC)c1OC` (some centres not stated): the TGI in [1] turned out to be 21.2 µM; in [2] it was 38.5 µM; in assay [3], 23.5 µM; in [4], 63.2 µM; in [5], 74 µM; in [6], 74.3 µM. Besides, the TGI was more than 100 µM in assay [7], more than 100 µM in [8], 28.2 µM in assay [9] and 11.1 µM in assay [10].

In the case of `Fc1ccc(/C=C2\COCC3=C2NC(=S)NC3c2ccc(F)cc2)cc1` (configuration not stated), the TGI in assay [1] amounted to 32.1 µM; in [2] it was 32.1 µM; in assay [3] it was 63.2 µM; in assay [4], 38.2 µM; in [5] it was 33.9 µM; in assay [6] it was 40 µM. Also, the TGI is 30 µM in assay [7], 79.8 µM in assay [8], 40.8 µM in assay [9] and 33.5 µM in assay [10].

In the case of `O=C(CSc1nc2ccccc2c(=O)n1-c1ccccc1)N=Nc1c(O)[nH]c2ccc(Br)cc12`, the TGI is 30.2 µM in assay [2]; 14 µM in assay [3]; more than 31.5 µM in assay [4]; 3.58 µM in [5]; 22.9 µM in assay [6]; 3.99 µM in [7]. The figures for the TGI in assay [8], in [9] and in assay [10] were 13.1 µM, 4.26 µM and 6.64 µM, respectively.

On to `COc1cc2c(c3nc4ccccc4nc13)-c1ccc(SC)c(=O)cc1[C@@H](NC(C)=O)CC2`, for which the TGI was more than 100 µM in assay [1]; more than 21.7 µM in assay [2]; more than 100 µM in assay [3]; more than 100 µM in [4]; more than 100 µM in assay [5]; 53 µM in assay [6]. Moreover, the TGI in [8], in [9] and in [10] was more than 100 µM throughout.

For `COC(=O)C12CCCN1CCC2`, the TGI in assay [1], in [2], in assay [3], in [4], in assay [5] and in assay [6] was more than 100 µM each time. Further, the total growth inhibition concentration (TGI) in [8], in assay [9] and in assay [10] was more than 100 µM each time.

For `C[C@]12CC[C@H]3[C@@H](CC=C4C[C@@H](N5CCCC5)CC[C@@]43C)[C@@H]1C/C(=C\c1ccc([N+](=O)[O-])cc1)[C@@H]2O`, the TGI in assay [1] came to 29.8 µM; in [2], 28.4 µM; in assay [3] it was 33.2 µM; in assay [4] it was 30.9 µM; in assay [5], 30.2 µM; in [6] it was 43.4 µM. Moreover, the values for the TGI in [8], in assay [9] and in assay [10] were 30.1 µM, 25.2 µM and 28.4 µM, respectively.

As for `O=C(CN1CCCCC1)c1ccc2[nH]c(=O)oc2c1`, the TGI in assay [1], in assay [2], in [3], in assay [4], in [5] and in assay [6] was more than 100 µM each time. Moreover, the TGI in assay [7], in assay [8] and in assay [9] was more than 100 µM in each case.

For `COc1cc(O)c2c(=O)c3cccc(C)c3[nH]c2c1`, the TGI in [1], in [2], in assay [3], in assay [4], in assay [5] and in [6] was more than 10 µM throughout. The TGI in assay [7], in [8] and in [9] was more than 10 µM each time.
